Structures are written as SMILES. Like-named read-outs stand apart in the source and are kept apart here. Where a SMILES comes first, the peptide text is derived from it. [ ]: non-standard residue; d: D form. The star is where a group is joined. Dolaproine = CO[C@@H]([C@@H]1CCCN1)[C@@H](C)C(=O)O; Dil = CC[C@H](C)[C@H](NC)[C@@H](CC(=O)O)OC; NMe2Val = CC(C)[C@@H](C(=O)*)N(C)C; NMeV = CN[C@H](C(=O)O)C(C)C; X3 = C[Si](C)(O)CCCC(=O)*; X2 = C[Si](C)(O)CCCN*

In general, EC50 refers to the concentration at which the effect is half-maximal.

In experiment [1] the test system is KB cells. Nature of the experiment: Cell titer-glo cell viability, washout protocol. Particulars: percent cell kill at 48 h. In kind it is cell-based. The method, then: Washout protocol: KB cells in culture were seeded in white clear bottom 96-well tissue culture plate at a density of 5,000 cells per well in a folate free RPMI media with 10% FBS a day prior to compound addition. Cells were counted visually with a hemocytometer and diluted accordingly to obtain the desired density. Cells were allowed to incubate for 24 hours in a humidified CO2 atmosphere in an incubator at 37° C. The spent media was aspirated and replenished with 100 μL of fresh media containing a 3-fold serial dilution of compound with concentrations ranging from 0.3 to 2000 nM and with a final DMSO concentration of 0.1%. Blank wells without compound were also treated with media containing 0.1% DMSO. Cells were incubated for 2 h and washed 4 times with fresh media. […] […] 100 μL of constituted Cell titer-glo reagent was added to each well and luminescence was recorded with a VICTOR plate reader according to manufacturers' protocol.
For orientation: Cellular ATP, detected with luciferase, serves as a proxy for viable cell number.

Experiment [2] has as its system KB cells. Put plainly: CellTiter-Glo cell viability, 72 hour incubation protocol. Particulars: Homo sapiens. In kind it is cell-based. The procedure: 72 hour incubation protocol: The CellTiter-Glo (CTG) assay (Promega) was used to measure cell viability in various different cell lines included KB cells obtained from American Type Culture Collection (ATCC). […] For this assay, 5,000 cells per well were plated in a 96-well tissue culture treated plate in RPMI 1640 medium (ThermoFisher Scientific) containing 5% FBS. Cells were allowed to settle at 37° C. in a humidified CO2 incubator for 24 hours. Cells were dosed with compound or vehicle control in duplicate for 72 hours at 37° C. in a humidified CO2 incubator. After the 72 hour dosing period, the CTG assay was performed according to the manufacturer's specifications. Luminescence was read using a Victor X5 (PerkinElmer) plate reader. Data was analyzed using Prism software and was normalized to the vehicle control.

Setting [3] is: 72 h incubation protocol, silanol based payloads, read-out: EC50.

In the case of `CC[C@]1(O)C[C@@H]2CN(CCc3c([nH]c4ccccc34)[C@@](C(=O)OC)(c3cc4c(cc3OC)N(C)[C@H]3[C@@](O)(C(=O)NCCC[Si](C)(C)O[Si](C)(C)CSc5ncc(Cn6cc(COCCOCCOCCOCCOCCOCCNC(=O)CC[C@H](NC(=O)c7ccc(NCc8cnc9nc(N)[nH]c(=O)c9n8)cc7)C(=O)O)nn6)cn5)[C@H](O)[C@]5(CC)C=CCN6CC[C@]43[C@@H]65)C2)C1` [Example 24], the “% Kill (48 h)” value in experiment [1] is on record as 84%.

Take `CC[C@]1(O)C[C@@H]2CN(CCc3c([nH]c4ccccc34)[C@@](C(=O)OC)(c3cc4c(cc3OC)N(C)[C@H]3[C@@](O)(C(=O)NCCC[Si](C)(C)O[Si](C)(C)CSc5ncc(Cn6cc(C[C@H](NC(=O)[C@H](CC(=O)O)NC(=O)[C@H](CC(=O)O)NC(=O)[C@H](CCCNC(=N)N)NC(=O)[C@H](CC(=O)O)NC(=O)CC[C@H](NC(=O)c7ccc(NCc8cnc9nc(N)[nH]c(=O)c9n8)cc7)C(=O)O)C(=O)O)nn6)cn5)[C@H](O)[C@]5(CC)C=CCN6CC[C@]43[C@@H]65)C2)C1` [Example 28]: in experiment [1], the “% Kill (48 h)” value amounted to 86%.

As to `CC[C@H](C)[C@@H]([C@@H](CC(=O)N1CCC[C@H]1[C@H](OC)[C@@H](C)C(=O)N[C@@H](Cc1ccccc1)C(=O)NCCC[Si](C)(C)O)OC)N(C)C(=O)[C@@H](NC(=O)[C@H](C(C)C)N(C)C)C(C)C` [Example 5, (S)—N-((3R,4S,5S)-1-((S)-2-((3R,4R,7S)-7-benzyl-13-hydroxy-4,13-dimethyl-5,8-dioxo-2-oxa-6,9-diaza-13-silatetradecan-3-yl)pyrrolidin-1-yl)-3-methoxy-5-methyl-1-oxoheptan-4-yl)-2-((S)-2-(dimethylamino)-3-methylbutanamido)-N,3-dimethylbutanamide] (NMe2Val-V[Dil][Dolaproine]F-X2), the 50% effective concentration (EC50) in experiment [2] (72 h) was ~0.5 nM.

As for `CC[C@H](C)[C@@H]([C@@H](CC(=O)N1CCC[C@H]1[C@H](OC)[C@@H](C)C(=O)N[C@@H](Cc1ccccc1)C(=O)O)OC)N(C)C(=O)[C@@H](NC(=O)[C@H](C(C)C)N(C)C(=O)CCC[Si](C)(C)O)C(C)C` [Example 6, ((2R,3R)-3-((S)-1-((3R,4S,5S)-4-((S)-2-((S)-2-(4-(hydroxydimethylsilyl)-N-methylbutanamido)-3-methylbutanamido)-N,3-dimethylbutanamido)-3-methoxy-5-methylheptanoyl)pyrrolidin-2-yl)-3-methoxy-2-methylpropanoyl)-L-phenylalanine] (X3-[NMeV]V[Dil][Dolaproine]F-OH), in experiment [2] (72 h), the EC50 is ~500 nM.

As for `CCCC(=O)OCN(C(=O)[C@@H](NC(=O)[C@H]1CCCCN1C)[C@@H](C)CC)[C@H](C[C@@H](OC(C)=O)c1nc(C(=O)N[C@@H](Cc2ccc(O)cc2)C[C@H](C)C(=O)NCCC[Si](C)(C)O)cs1)C(C)C` (stereo in doubt) [Example 13], the EC50 in experiment [2] (72 h) is < 0.1 nM.

Consider `CC[C@@]1(O)C(=O)OCc2c1cc1n(c2=O)Cc2c-1nc1ccccc1c2CC[Si](C)(C)O` [Example 7, (S)-4-Ethyl-4-hydroxy-11-(2-(hydroxydimethylsilyl)ethyl)-1,12-dihydro-14H-pyrano[3′,4′:6,7]indolizino[1,2-b]quinoline-3,14(4H)-dione], for which, in experiment [2] (setting [3]), the EC50 is ~56 nM.

With `CC[C@]1(O)C[C@H]2CN(CCc3c([nH]c4ccccc34)[C@@](C(=O)OC)(c3cc4c(cc3OC)N(C)[C@H]3[C@@](O)(C(=O)NCCC[Si](C)(C)O)[C@H](O)[C@]5(CC)C=CCN6CC[C@]43[C@@H]65)C2)C1` (stereo in doubt) [Example 1, Methyl (3R,5S,7R,9S)-5-ethyl-9-((3aR,3a1R,4R,5S,5aR,10bR)-3a-ethyl-4,5-dihydroxy-5-((3-(hydroxydimethylsilyl)propyl)carbamoyl)-8-methoxy-6-methyl-3a,3a1,4,5,5a,6,11,12-octahydro-1H-indolizino[8,1-cd]carbazol-9-yl)-5-hydroxy-1,4,5,6,7,8,9,10-octahydro-2H-3,7-methano[1]azacycloundecino[5,4-b]indole-9-carboxylate], in experiment [2] (setting [3]), the EC50 was ~6 nM.

`CC[C@]1(O)CC2CN(CCc3c([nH]c4ccccc34)[C@@](C(=O)OC)(c3cc4c(cc3OC)N(C)[C@H]3[C@@](O)(C(=O)NCCC[Si](C)(C)O[Si](C)(C)CSc5ncc(COCCOCCOCCn6cc(COCC(COCc7cn(CCOCCOCCOCc8cnc(SC[Si](C)(C)O[Si](C)(C)CCCNC(=O)[C@@]9(O)[C@H](O)[C@]%10(CC)C=CCN%11CC[C@@]%12(c%13cc([C@@]%14(C(=O)OC)CC%15CN(CCc%16c%14[nH]c%14ccccc%16%14)C[C@](O)(CC)C%15)c(OC)cc%13N(C)[C@@H]9%12)[C@@H]%11%10)nc8)nn7)(COCc7cn(CCOCCOCCOCc8cnc(SC[Si](C)(C)O[Si](C)(C)CCCNC(=O)[C@@]9(O)[C@H](O)[C@]%10(CC)C=CCN%11CC[C@@]%12(c%13cc([C@@]%14(C(=O)OC)CC%15CN(CCc%16c%14[nH]c%14ccccc%16%14)C[C@](O)(CC)C%15)c(OC)cc%13N(C)[C@@H]9%12)[C@@H]%11%10)nc8)nn7)NC(=O)CCOCCOCCOCCOCCOCCOCCNC(=O)CC[C@H](NC(=O)c7ccc(NCc8cnc9nc(N)[nH]c(=O)c9n8)cc7)C(=O)O)nn6)cn5)[C@H](O)[C@]5(CC)C=CCN6CC[C@]43[C@@H]65)C2)C1` (some centres unmarked) [Example 27]: the “% Kill (48 h)” value in experiment [1] came out at 80%.

(Values after patent publication US10293053B2, “Silanol based therapeutic payloads” (BlinkBio, Inc., priority 2016, dated 2019).)
